This test relates to GM01896 cells (MPS II dermal fibroblasts). In words: Assay 1: MPS cellular assay, MPS II (heparan sulfate disaccharide biomarkers by LC-MS). The following applies: Assay 1 for MPS II, heparan sulfate disaccharide biomarkers (I2a4, I2a6, I2S0 and/or I2S6), read-out: IC50 Range. The format is cell-based, human. In short, it runs like this: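 Heparan sulfate disaccharide biomarkers quantified by LC-MS after heparinase I/II/III digestion and isotopic aniline labelling, using GM01896 MPS II fibroblasts exposed to compound (at or below 30 μM, 4-21 days). Values given as IC50 by curve fitting; cell viability checked with alamar blue or ATP.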

Like-named read-outs stand apart in the source and are kept apart here.

As a reminder, the IC50 is the concentration at which inhibition is half-maximal. In the case of `Cc1nn(C)c2cc(-c3cc(Nc4ccc(-c5ccc[nH]5)cc4)nc(N4CCOCC4)n3)ccc12` [[6-(1,3-dimethyl(1H-indazol-6-yl))-2-morpholin-4-ylpyrimidin-4-yl](4-pyrrol-2-ylphenyl)amine], the IC50 (Homo sapiens, Fibroblast) is less than 0.5 µM.

`Cn1nc(NCCCN2CCOCC2)c2ccc(-c3cc(Nc4ccc(Cl)cc4)nc(N4CCOCC4)n3)cc21` [(4-chlorophenyl)(6-{1-methyl-3-[(3-morpholin-4-ylpropyl)amino](1H-indazol-6-yl)}-2-morpholin-4-ylpyrimidin-4-yl)amine]: the half-maximal inhibitory concentration (IC50) (Homo sapiens, Fibroblast) was in the range of 0.5 to 1 µM.

`Cc1nn(C)c2cc(-c3cc(Nc4ccc5[nH]ncc5c4)nc(N4CCOCC4)n3)ccc12` [1H-indazol-5-yl[6-(1,3-dimethyl(1H-indazol-6-yl))-2-morpholin-4-ylpyrimidin-4-yl]amine]: the half-inhibitory concentration (IC50) (Homo sapiens, Fibroblast) was 1 to 5 µM.

As to `Cc1nn(C)c2cc(-c3cc(Nc4ccc5c(ccn5C)c4)nc(N4CCOCC4)n3)ccc12` [[6-(1,3-dimethyl(1H-indazol-6-yl))-2-morpholin-4-ylpyrimidin-4-yl](1-methylindol-5-yl)amine], the IC50 (Homo sapiens, Fibroblast) lay in the range of 0.5 to 1 µM.

As for `Clc1ccc(Nc2cc(-c3ccc4ncn(CCCN5CCCC5)c4c3)nc(N3CCOCC3)n2)cc1` [(4-chlorophenyl){2-morpholin-4-yl-6-[1-(3-pyrrolidinylpropyl)benzimidazol-6-yl]pyrimidin-4-yl}amine], the IC50 (Homo sapiens, Fibroblast) is 0.5 to 1 µM.

Regarding `Cn1nc(CCCN2CCOCC2)c2ccc(-c3cc(Nc4ccc(Cl)cc4)nc(N4CCOCC4)n3)cc21` [(4-chlorophenyl){6-[1-methyl-3-(3-morpholin-4-ylpropyl)(1H-indazol-6-yl)]-2-morpholin-4-ylpyrimidin-4-yl}amine], where the note is “Homo sapiens, Fibroblast”, the half-inhibitory concentration (IC50) was 1 to 5 µM.

As for `CN1CCN(c2nn(C)c3cc(-c4cc(Nc5ccc(Cl)cc5)nc(N5CCOCC5)n4)ccc23)CC1` [(4-chlorophenyl){6-[1-methyl-3-(4-methylpiperazinyl)(1H-indazol-6-yl)]-2-morpholin-4-ylpyrimidin-4-yl}amine], under “Homo sapiens, Fibroblast”, the half-maximal inhibitory concentration (IC50) lay in the range of 1 to 5 µM.

As for `Cc1nn(C)c2nc(-c3cc(Nc4ccc(Cl)cc4)nc(N4CCOCC4)n3)ccc12` [[6-(1,3-dimethylpyrazolo[4,5-e]pyridin-6-yl)-2-morpholin-4-ylpyrimidin-4-yl](4-chlorophenyl)amine], where the note is “Homo sapiens, Fibroblast”, the half-inhibitory concentration (IC50) lay within 1 to 5 µM.

Consider `CN(C)CCCn1ncc2ccc(-c3cc(Nc4ccc(Cl)cc4)nc(N4CCOCC4)n3)cc21` [[3-(6-{6-[(4-chlorophenyl)amino]-2-morpholin-4-ylpyrimidin-4-yl}(1H-indazolyl))propyl]dimethylamine], for which the IC50 (Homo sapiens, Fibroblast) was in the range of 1 to 5 µM.

Consider `Cn1cc2ccc(Nc3cc(-c4ccc5cnn(C)c5c4)nc(N4CCOCC4)n3)cc2n1` [[6-(1-methyl(1H-indazol-6-yl))-2-morpholin-4-ylpyrimidin-4-yl](2-methyl(2H-indazol-6-yl))amine], for which, under “Homo sapiens, Fibroblast”, the 50% inhibitory concentration (IC50) lay within 1 to 5 µM.

For `CNC(=O)c1ccc(Nc2cc(-c3ccc4ncn(C)c4c3)nc(N3CCOCC3)n2)cc1` [N-methyl(4-{[6-(1-methylbenzimidazol-6-yl)-2-morpholin-4-ylpyrimidin-4-yl]amino}phenyl)carboxamide], the IC50 (Homo sapiens, Fibroblast) was less than 0.5 µM.

As for `Cn1cc2cc(Nc3cc(-c4ccc5cnn(C)c5c4)nc(N4CCOCC4)n3)ccc2n1` [[6-(1-methyl(1H-indazol-6-yl))-2-morpholin-4-ylpyrimidin-4-yl](2-methyl(2H-indazol-5-yl))amine], for the setting “Homo sapiens, Fibroblast”, the IC50 lay within 1 to 5 µM.

As for `Cc1c(Nc2ccc(Cl)cc2)nc(N2CCOCC2)nc1-c1ccc2cnn(C)c2c1` [(4-chlorophenyl)[5-methyl-6-(1-methyl(1H-indazol-6-yl))-2-morpholin-4-ylpyrimidin-4-yl]amine], where the note is “Homo sapiens, Fibroblast”, the IC50 was 1 to 5 µM.

In the case of `Clc1ccc(Nc2cc(-c3ccc4cnn(CC5CC5)c4c3)nc(N3CCOCC3)n2)cc1` [(4-chlorophenyl){6-[1-(cyclopropylmethyl)(1H-indazol-6-yl)]-2-morpholin-4-ylpyrimidin-4-yl}amine], the half-maximal inhibitory concentration (IC50) (Homo sapiens, Fibroblast) was in the range of 1 to 5 µM.

As for `CN(C)c1nn(C)c2cc(-c3cc(Nc4ccc(Cl)cc4)nc(N4CCOCC4)n3)ccc12` [(6-{6-[(4-chlorophenyl)amino]-2-morpholin-4-ylpyrimidin-4-yl}-1-methyl(1H-indazol-3-yl))dimethylamine], for the setting “Homo sapiens, Fibroblast”, the IC50 is 1 to 5 µM.

Turning to `Cn1ncc2ccc(-c3cc(Nc4ccc(-n5cccn5)cc4)nc(N4CCOCC4)n3)cc21` [[6-(1-methyl(1H-indazol-6-yl))-2-morpholin-4-ylpyrimidin-4-yl](4-pyrazolylphenyl)amine], the 50% inhibitory concentration (IC50) is less than 0.5 µM.

With `Cc1nn(CCN2CCOCC2)c2cc(-c3cc(Nc4ccc(Cl)cc4)nc(N4CCOCC4)n3)ccc12` [(4-chlorophenyl){6-[3-methyl-1-(2-morpholin-4-ylethyl)(1H-indazol-6-yl)]-2-morpholin-4-ylpyrimidin-4-yl}amine], under “Homo sapiens, Fibroblast”, the IC50 was 0.5 to 1 µM.

With `Cn1c(=O)n(CCN2CCOCC2)c2ccc(-c3cc(Nc4ccc(Cl)cc4)nc(N4CCOCC4)n3)cc21` [5-{6-[(4-chlorophenyl)amino]-2-morpholin-4-ylpyrimidin-4-yl}-3-methyl-1-(2-morpholin-4-ylethyl)-3-hydrobenzimidazol-2-one], the IC50 was 0.5 to 1 µM.

For the compound `Cn1c(CCN2CCOCC2)nc2ccc(-c3cc(Nc4ccc(Cl)cc4)nc(N4CCOCC4)n3)cc21` [(4-chlorophenyl){6-[1-methyl-2-(2-morpholin-4-ylethyl)benzimidazol-6-yl]-2-morpholin-4-ylpyrimidin-4-yl}amine], the IC50 (Homo sapiens, Fibroblast) was less than 0.5 µM.

Regarding `Clc1ccc(Nc2cc(-c3ccc4cnn(CCCN5CCCC5)c4c3)nc(N3CCOCC3)n2)cc1` [(4-chlorophenyl){2-morpholin-4-yl-6-[1-(3-pyrrolidinylpropyl)(1H-indazol-6-yl)]pyrimidin-4-yl}amine], the half-maximal inhibitory concentration (IC50) (Homo sapiens, Fibroblast) fell in the range of 1 to 5 µM.

Regarding `Cn1ncc2ccc(-c3cc(Nc4ccc5cc[nH]c5c4)nc(N4CCOCC4)n3)cc21` [indol-6-yl[6-(1-methyl(1H-indazol-6-yl))-2-morpholin-4-ylpyrimidin-4-yl]amine], the IC50 (Homo sapiens, Fibroblast) lay in the range of 1 to 5 µM.

In the case of `CN(C)CCCn1cnc2ccc(-c3cc(Nc4ccc(Cl)cc4)nc(N4CCOCC4)n3)cc21` [[3-(6-{6-[(4-chlorophenyl)amino]-2-morpholin-4-ylpyrimidin-4-yl}benzimidazolyl)propyl]dimethylamine], the half-maximal inhibitory concentration (IC50) is 0.5 to 1 µM.

Regarding `Cn1nc(CCN2CCOCC2)c2ccc(-c3cc(Nc4ccc(Br)cc4)nc(N4CCOCC4)n3)cc21` [(4-bromophenyl){6-[1-methyl-3-(2-morpholin-4-ylethyl)(1H-indazol-6-yl)]-2-morpholin-4-ylpyrimidin-4-yl}amine], for the setting “Homo sapiens, Fibroblast”, the IC50 fell in the range of 0.5 to 1 µM.

Consider `CNC(=O)c1ccc(Nc2cc(-c3ccc4cnn(CCOC)c4c3)nc(N3CCOCC3)n2)cc1` [[4-({6-[1-(2-methoxyethyl)(1H-indazol-6-yl)]-2-morpholin-4-ylpyrimidin-4-yl}amino)phenyl]-N-methylcarboxamide], for which, where the note is “Homo sapiens, Fibroblast”, the half-inhibitory concentration (IC50) was less than 0.5 µM.

For `Cn1ncc2ccc(-c3cc(Nc4ccc(N5CN=NC5=O)cc4)nc(N4CCOCC4)n3)cc21` [4-(4-{[6-(1-methyl(1H-indazol-6-yl))-2-morpholin-4-ylpyrimidin-4-yl]amino}phenyl)-1,2,4-triazolin-5-one], for the setting “Homo sapiens, Fibroblast”, the IC50 is 1 to 5 µM.

`COC(=O)c1ccc(Nc2cc(-c3ccc4cnn(C)c4c3)nc(N3CCOCC3)n2)cc1` [methyl 4-{[6-(1-methyl(1H-indazol-6-yl))-2-morpholin-4-ylpyrimidin-4-yl]amino}benzoate]: under “Homo sapiens, Fibroblast”, the IC50 was in the range of 1 to 5 µM.

For `Cn1ccc2ccc(Nc3cc(-c4ccc5c(CCCN6CCCC6)nn(C)c5c4)nc(N4CCOCC4)n3)cc21` [(1-methylindol-6-yl) {6-[1-methyl-3-(3-pyrrolidinylpropyl)(1H-indazol-6-yl)]-2-morpholin-4-ylpyrimidin-4-yl}amine], the IC50 lay within 0.5 to 1 µM.

With `CNC(=O)c1ccc(Nc2cc(-c3ccc4c(cnn4C4CC4)c3)nc(N3CCOCC3)n2)cc1` [(4-{[6-(1-cyclopropyl(1H-indazol-5-yl))-2-morpholin-4-ylpyrimidin-4-yl]amino}phenyl)-N-methylcarboxamide], where the note is “Homo sapiens, Fibroblast”, the IC50 lay within 1 to 5 µM.

For `CNC(=O)c1ccc(Nc2cc(-c3ccc4nn(CC5CC5)cc4c3)nc(N3CCOCC3)n2)cn1` [[5-({6-[2-(cyclopropylmethyl)(2H-indazol-5-yl)]-2-morpholin-4-ylpyrimidin-4-yl}amino)(2-pyridyl)]-N-methylcarboxamide], under “Homo sapiens, Fibroblast”, the IC50 was 1 to 5 µM.

Consider `Cc1nn(C)c2cc(-c3cc(Nc4ccc(Cl)cc4)nc(N4CCOCC4)n3)cnc12` [[6-(1,3-dimethylpyrazolo[4,5-b]pyridin-6-yl)-2-morpholin-4-ylpyrimidin-4-yl](4-chlorophenyl)amine], for which the 50% inhibitory concentration (IC50) (Homo sapiens, Fibroblast) lay in the range of 0.5 to 1 µM.

For `COCCn1ncc2ccc(-c3cc(Nc4ccc(C(=O)OC)cc4)nc(N4CCOCC4)n3)cc21` [methyl 4-({6-[1-(2-methoxyethyl)(1H-indazol-6-yl)]-2-morpholin-4-ylpyrimidin-4-yl}amino)benzoate], where the note is “Homo sapiens, Fibroblast”, the concentration for half-maximal inhibition (IC50) was in the range of 0.5 to 1 µM.

Turning to `CC(=O)c1ccc(Nc2cc(-c3ccc4cnn(C)c4c3)nc(N3CCOCC3)n2)cc1` [1-acetyl-4-{[6-(1-methyl(1H-indazol-6-yl))-2-morpholin-4-ylpyrimidin-4-yl]amino}benzene], the IC50 (Homo sapiens, Fibroblast) is 0.5 to 1 µM.

Regarding `CNC(=O)c1ccc(Nc2cc(-c3ccc4cnn(CC5CC5)c4c3)nc(N3CCOCC3)n2)cc1` [[4-({6-[1-(cyclopropylmethyl)(1H-indazol-6-yl)]-2-morpholin-4-ylpyrimidin-4-yl}amino)phenyl]-N-methylcarboxamide], the IC50 (Homo sapiens, Fibroblast) was less than 0.5 µM.

Consider `Clc1ccc(Nc2cc(-c3ccc4cnn(CCN5CCOCC5)c4c3)nc(N3CCOCC3)n2)cc1` [(4-chlorophenyl){2-morpholin-4-yl-6-[1-(2-morpholin-4-ylethyl)(1H-indazol-6-yl)]pyrimidin-4-yl}amine], for which the IC50 (Homo sapiens, Fibroblast) lay within 0.5 to 1 µM.

`Cc1nn(C)c2cc(-c3cc(Nc4ccc(-c5nnc(C(F)(F)F)[nH]5)cc4)nc(N4CCOCC4)n3)ccc12` [[6-(1,3-dimethyl(1H-indazol-6-yl))-2-morpholin-4-ylpyrimidin-4-yl]{4-[5-(trifluoromethyl)(4H-1,2,4-triazol-3-yl)]phenyl}amine]: the 50% inhibitory concentration (IC50) (Homo sapiens, Fibroblast) was 1 to 5 µM.

These data come from US20190151312A1, “HEPARAN SULFATE BIOSYNTHESIS INHIBITORS FOR THE TREATMENT OF DISEASES” (BioMarin Pharmaceutical Inc., priority 2014, published 2019).
